Assay results reported in ChEMBL document CHEMBL4229332, “Novel multi-target azinesulfonamides of cyclic amine derivatives as potential antipsychotics with pro-social and pro-cognitive effects” (Eur J Med Chem, 2018).
Active and inactive are the calls of the source. The rule behind the calls is not given here.

Key:
[1] = biological target: 5-hydroxytryptamine receptor 1D (Rattus norvegicus) (UniProt P28565); test: Antagonist activity at rat 5-HT1DR expressed in CHO cells assessed as inhibition of serotonin-induced response by cellular dielectric spectroscopy; type: functional, cell-based
[2] = biological target: 5-hydroxytryptamine receptor 1B (Cricetulus griseus) (UniProt P46636); test: Antagonist activity at 5-HT1BR in CHO cells assessed as inhibition of serotonin-induced response; type: functional, cell-based
Rattus norvegicus [3] = species on record: Rattus norvegicus; test: animal or person; conditions: Sprague-Dawley, ip, read-out: MED
Description: Antipsychotic activity in ip dosed Sprague-Dawley rat assessed as suppression of avoidance behavior by avoiding foot shock administered 60 mins prior to test by conditioned avoidance response test

Rattus norvegicus [4] = species on record: Rattus norvegicus; test: animal or person; conditions: Sprague-Dawley, ip, read-out: MED; remark: listed apart in the source
Description: Reversal of ketamine-induced working social withdrawal in ip dosed Sprague-Dawley rat pretreated for 60 mins followed by ketamine administration

Rattus norvegicus [5] = test: Effect on failure incidence during conditioned avoidance response test in Sprague-Dawley rat at 0.3 mg/kg, ip administered 60 mins prior to testing; type: ADME, organism-based; conditions: in vivo, 1 h
[6] = (§1) Toxicity in ip dosed Sprague-Dawley rat assessed as induction of catalepsy measured every 30 mins up to 240 mins by bar test; type: organism-based; conditions: Sprague-Dawley, in vivo
Rattus norvegicus [7] = species on record: Rattus norvegicus; test: animal or person; conditions: Sprague-Dawley, ip, read-out: MED; remark: listed apart in the source
Description: Antipsychotic activity in ip dosed Sprague-Dawley rat assessed as reduction in PCP-induced hyper-locomotion pretreated for 60 mins followed by PCP addition measured for 30 mins starting 15 min after rat reintroduction to auto-tracks

[8] = Toxicity in ip dosed Sprague-Dawley rat assessed as sedation pretreated for 60 mins followed by PCP addition measured for 30 mins starting 15 min after rat reintroduction to auto-tracks; type: organism-based; conditions: in vivo
Rattus norvegicus [9] = test: Effect on failure incidence during conditioned avoidance response test in Sprague-Dawley rat at 2 mg/kg, ip administered 60 mins prior to testing; type: ADME, organism-based; conditions: in vivo, 1 h
Rattus norvegicus [10] = test: Toxicity in Wistar rat assessed as increase in prolactin level at 3 mg/kg, po after 60 mins by ELISA; type: organism-based; conditions: in vivo, 1 h
Rattus norvegicus [11] = species on record: Rattus norvegicus; test: animal or person; conditions: Sprague-Dawley, ip, read-out: MED; remark: listed apart in the source
Description: Reversal of PCP-induced cognitive impairment in ip dosed Sprague-Dawley rat assessed as reduction in time spent exploring novel object over familiar object pretreated for 60 mins followed by PCP addition by novel object recognition assay

Rattus norvegicus [12] = test: as §1; type: organism-based; conditions: in vivo
Rattus norvegicus [13] = test: Reversal of ketamine-induced working social withdrawal in Sprague-Dawley rat at 0.1 mg/kg, ip pretreated for 60 mins followed by ketamine administration; type: functional, organism-based
Rattus norvegicus [14] = test: Reversal of PCP-induced cognitive impairment in Sprague-Dawley rat assessed as […] in time spent exploring novel object over familiar object at 0.05 mg/kg, ip pretreated for 60 mins followed by PCP addition by novel object recognition assay; type: functional, organism-based
[15] = Effect on failure incidence during conditioned avoidance response test in ip dosed Sprague-Dawley rat administered 60 mins prior to testing; type: ADME, organism-based; conditions: in vivo

Sequence of 5-hydroxytryptamine receptor 1D (Rattus norvegicus) (P28565 whole entry): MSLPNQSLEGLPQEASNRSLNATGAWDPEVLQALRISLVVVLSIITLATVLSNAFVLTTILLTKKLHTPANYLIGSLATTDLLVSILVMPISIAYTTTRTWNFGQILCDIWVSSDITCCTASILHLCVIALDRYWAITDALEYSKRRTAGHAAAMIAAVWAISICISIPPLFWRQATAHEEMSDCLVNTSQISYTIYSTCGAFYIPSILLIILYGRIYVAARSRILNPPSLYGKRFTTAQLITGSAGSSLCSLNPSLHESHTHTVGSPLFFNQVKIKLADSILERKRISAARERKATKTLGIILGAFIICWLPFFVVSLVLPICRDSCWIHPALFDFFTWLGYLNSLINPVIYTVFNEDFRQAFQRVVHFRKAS
Sequence of 5-hydroxytryptamine receptor 1B (Cricetulus griseus) (P46636 whole entry): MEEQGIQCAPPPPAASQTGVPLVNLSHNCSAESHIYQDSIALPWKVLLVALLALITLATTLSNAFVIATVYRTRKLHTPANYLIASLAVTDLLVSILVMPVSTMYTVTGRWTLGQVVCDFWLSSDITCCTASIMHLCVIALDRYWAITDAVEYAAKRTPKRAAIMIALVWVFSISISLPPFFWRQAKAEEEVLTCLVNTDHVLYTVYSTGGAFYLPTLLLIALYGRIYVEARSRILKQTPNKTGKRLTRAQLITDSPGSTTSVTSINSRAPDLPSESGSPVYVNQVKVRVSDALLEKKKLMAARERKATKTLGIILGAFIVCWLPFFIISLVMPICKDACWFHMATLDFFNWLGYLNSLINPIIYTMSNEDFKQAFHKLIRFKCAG

For `CSc1ccc2c(c1)C(N1CCN(C)CC1)Cc1ccccc1S2` (stereo not given), the Kb [1] was 14 nM.
Molecule `COc1ccc(NC(=O)c2ccc(-c3ccc(-c4noc(C)n4)cc3C)cc2)cc1N1CCN(C)CC1` has a Kb [2] of 0.065 nM.
With `Cc1nc2n(c(=O)c1CCN1CCC(c3noc4cc(F)ccc34)CC1)CCCC2` [RISPERIDONE] the minimal effective dose (Rattus norvegicus [3]) was 0.1 mg/kg, the minimal effective dose (Rattus norvegicus [4]) was 0.1 mg/kg and the Activity (Rattus norvegicus [5]) was “Non-Toxic”.
Molecule `Cc1cc2c(s1)Nc1ccccc1N=C2N1CCN(C)CC1` [OLANZAPINE] has an MTD [6] of 40 mg/kg, a minimal effective dose (Rattus norvegicus [7]) of 1.88 mg/kg and a minimal effective dose (Rattus norvegicus [3]) of 1 mg/kg. The MTD at 0.5 h [8] was 1.25 mg/kg, the Activity (Rattus norvegicus [9]) was “Non-Toxic” and the Activity (Rattus norvegicus [10]) was “Toxic”. For the same molecule, the minimal effective dose (Rattus norvegicus [11]) was 1.25 mg/kg.
In the case of `O=C(CCCN1CCC(O)(c2ccc(Cl)cc2)CC1)c1ccc(F)cc1` [HALOPERIDOL], the MTD [6] is reported as 0.2 mg/kg, the Activity (Rattus norvegicus [12]) is reported as “Dose-dependent effect” and the minimal effective dose (Rattus norvegicus [7]) is reported as 0.6 mg/kg. For the same molecule, the Activity (Rattus norvegicus [13]) was “inactive”, the minimal effective dose (Rattus norvegicus [3]) was 0.1 mg/kg and the MTD at 0.5 h [8] was 0.06 mg/kg. For the same molecule, the Activity (Rattus norvegicus [14]) was “inactive” and the MTD at 1 h [15] was 0.2 mg/kg.
